Data from paper PMC8359193, “Summary of reference chemicals evaluated by the fish short‐term reproduction assay, OECD TG229, using Japanese Medaka, Oryzias latipes” (Journal of Applied Toxicology, 2021).

Tests used:
[1] = biological target: medaka ARβ (mARβ) (Oryzias latipes, UniProt D1MV73); assay: Medaka ARβ reporter gene assay (RGA), antagonist assay with 50 nM 11KT, HepG2 cells; format: cell-based, Japanese medaka (Oryzias latipes); conditions: 50 nM 11KT-induced mARβ activity
Method: To support interpretation of the biological effects observed in the FSTRA studies, in vitro RGAs using medaka Esr1 (mEsr1) and medaka ARβ (mARβ) were performed for the 16 test chemicals. In the present study, Esr1 and ARβ, which are ancestral subtypes among Esrs and ARs in Japanese medaka, were selected based on the phylogenetical analyses of Esr and AR with each receptor RGAs (Ogino et al., [2016], [2018]; Tohyama et al., [2015]).
The mARβ RGA in which the agonist and the antagonist assays were performed as same as the mEsr1 RGA was carried out according to the methods previously reported by Lange et al. ([2015]). For the assays, human liver cancer cell line, HepG2, was used as the host cells, and mARβ/pcDNA3.1, MMTV‐Luc, and pRL‐TK‐Rlu were used as mARβ expression vector, reporter vector, and internal control vector, respectively. Other materials and methods, for example, operating procedure, reagents, and incubation conditions, were almost the same as the mEsr1 RGA previously described beside that 11KT (Sigma‐Aldrich, purity 99.0%), a main AR ligand in fish, was competitively spiked at 50 nM into the test medium with test chemicals in antagonist assay. In the agonist and the antagonist assays, 11KT and 2‐hydroxyflutamide (2HFLT; Sigma‐Aldrich, purity 98.5%) were used as positive controls, respectively.
Effect concentrations, that is, EC50 (a half maximal effective concentration) in the agonist assay and IC50 (a half maximal inhibitory concentration) in the antagonist assay, were estimated by nonlinear curve fitting (e.g., three parameters logistic regression curve) using GraphPad Prism (GraphPad Software Inc., La Jolla, CA, USA).

[2] = system: Japanese medaka (Oryzias latipes); assay: Fish short-term reproduction assay (FSTRA, OECD TG229), 21-day flow-through exposure; conditions: for Fertility rate (%) / Mortality (%) Female / Mortality (%) Male / Number of fertilized eggs / Number of total eggs / SSC Female / SSC Male / VTG (ng/mg of liver) Female / VTG (ng/mg of liver) Male: 21 days; for GSI Female / GSI Male / HSI Female / HSI Male / Length Female / Length Male / Weight Female / Weight Male: at completion of exposure
Method: The experimental studies on the FSTRA for the 16 chemicals were conducted in two laboratories in Japan, the National Institute for Environmental Studies (NIES, Lab‐1) and the Institute of Environmental Ecology, IDEA Consultants Inc. (Lab‐2), in accordance with OECD TG229 (OECD, [2012a]) (Table 1).
The NIES‐R strain of Japanese medaka (O. latipes), one of the orange‐red varieties, was used in all the 16 chemical studies. For the studies, healthy and mature male and female medakas at 16 ± 2 weeks old were selected from a single‐stock population, which were bred within the test facilities. The test fish were maintained in conditions similar to the assay for at least 7 days, and spawning status was checked during the acclimation period. On the day the chemical exposure commenced, to ensure balanced distribution of test fish between the treatment groups for the reproductive status of the fish, the replicate vessels (fish tanks), with each containing three male and female medaka, were distributed to each treatment and control group, for example, by a randomized block design based on the number of fertilized eggs laid in the last 5–7 days during the acclimation, in each assay.
The water solubility of the test chemical was also taken into consideration when deciding the highest test concentration. To set the lower concentrations, a spacing factor ranging between two and five was used. All assays included a dilution water control (DWC).
Test solutions at the selected concentrations were prepared by diluting a stock solution, which was prepared by an adequate method depending on the physicochemical properties of the test chemicals, for example, by simply mixing the test chemical in dilution water by stirring and/or sonicating for an appropriate time or by using a solid–liquid saturator. In the two laboratories, flow‐through exposure systems, in which a series of test solutions at the target concentrations can be continuously prepared and delivered to test vessels at controlled flow rates (Haselman et al., [2016]; Watanabe et al., [2017]), were used for the exposure experiments.
In the FSTRA, three mature adult males and females in a test vessel were exposed together to the test chemicals in flow‐through condition for 3 weeks. In all the assays, each treatment group, including the DWC group, contained four replicate tanks. During the exposure period, the fish were fed a sufficient amount of live brine shrimp nauplii (newly hatched Artemia sp.) for daily spawning ad libitum. Fecal material in the tanks was appropriately removed by siphoning after feeding. Water temperature of test solutions was recorded for at least one vessel in each treatment and control group every day and for all vessels at least once a week. Furthermore, dissolved oxygen and pH of test solutions were measured for all test vessels at least once a week. Mortality and abnormal behavior and appearance in the fish exposed to test chemicals were daily observed, and any fish that died were removed from the tank as soon as possible. To assess the reproductive status, all eggs females spawned were collected every day. At the completion of the chemical exposure, surviving fish in each tank were sampled.
The eggs females released on the bottom of the tank were collected by siphoning, and the egg clutches still on female abdomen were carefully picked from the body of the females captured using a small net. All the eggs collected were microscopically observed and separately counted for fertilized and unfertilized.

[3] = system: fathead minnow; set-up: method as in Panter et al. (2004); conditions: 21-day exposure; ref Panter et al. (2004); cited from earlier work

Chain of medaka ARβ (mARβ) (D1MV73 entry or part of it): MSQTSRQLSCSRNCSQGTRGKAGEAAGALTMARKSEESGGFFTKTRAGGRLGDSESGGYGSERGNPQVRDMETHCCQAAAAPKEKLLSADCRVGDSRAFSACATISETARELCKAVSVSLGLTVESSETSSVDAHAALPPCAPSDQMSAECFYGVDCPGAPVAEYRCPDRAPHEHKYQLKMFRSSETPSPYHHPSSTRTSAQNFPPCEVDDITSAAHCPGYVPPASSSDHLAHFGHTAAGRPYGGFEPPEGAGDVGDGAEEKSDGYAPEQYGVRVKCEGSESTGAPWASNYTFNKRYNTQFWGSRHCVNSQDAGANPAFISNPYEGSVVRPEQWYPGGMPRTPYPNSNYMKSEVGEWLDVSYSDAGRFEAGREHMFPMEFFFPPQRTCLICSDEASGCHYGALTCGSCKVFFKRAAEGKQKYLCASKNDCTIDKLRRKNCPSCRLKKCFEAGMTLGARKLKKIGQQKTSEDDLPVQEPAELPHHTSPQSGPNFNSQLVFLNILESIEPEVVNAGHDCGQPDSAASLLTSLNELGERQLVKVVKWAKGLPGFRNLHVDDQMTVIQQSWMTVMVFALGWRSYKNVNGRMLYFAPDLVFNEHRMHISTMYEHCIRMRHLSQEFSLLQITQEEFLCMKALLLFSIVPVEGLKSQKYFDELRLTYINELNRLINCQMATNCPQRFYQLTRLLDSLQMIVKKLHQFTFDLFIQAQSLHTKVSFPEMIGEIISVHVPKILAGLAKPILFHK

SMILES: CC(C)C(=O)Nc1ccc([N+](=O)[O-])c(C(F)(F)F)c1 [FLT, Flutamide]
- mARβ antagonist activity (in words) [1]: inhibited
- Fertility rate (%) ([2]; measured conc. 119 μg/L): 94%
- Mortality (%) Female ([2]; measured conc. 119 μg/L): 0%
- Mortality (%) Male ([2]; measured conc. 119 μg/L): 0%
- Number of fertilized eggs ([2]; measured conc. 119 μg/L): 25
- Number of total eggs ([2]; measured conc. 119 μg/L): 26 ± 2.3 /female/day
- SSC Female ([2]; measured conc. 119 μg/L): 0 ± 0
- SSC Male ([2]; measured conc. 119 μg/L): 86 ± 18
- VTG (ng/mg of liver) Female ([2]; measured conc. 119 μg/L): 908 ± 255 ng/mg of liver
- VTG (ng/mg of liver) Male ([2]; measured conc. 119 μg/L): 47.9 ± 41.8 ng/mg of liver
- GSI Female ([2]; measured conc. 119 μg/L): 10.1%
- GSI Male ([2]; measured conc. 119 μg/L): 1.10%
- HSI Female ([2]; measured conc. 119 μg/L): 4.2%
- HSI Male ([2]; measured conc. 119 μg/L): 2.0%
- Length Female ([2]; measured conc. 119 μg/L): 34.2 mm
- Length Male ([2]; measured conc. 119 μg/L): 35.6 mm
- Weight Female ([2]; measured conc. 119 μg/L): 426 mg
- Weight Male ([2]; measured conc. 119 μg/L): 445 mg
- Fertility rate (%) ([2]; measured conc. 248 μg/L): 94%
- Mortality (%) Female ([2]; measured conc. 248 μg/L): 0%
- Mortality (%) Male ([2]; measured conc. 248 μg/L): 0%
- Number of fertilized eggs ([2]; measured conc. 248 μg/L): 26
- Number of total eggs ([2]; measured conc. 248 μg/L): 28 ± 3.1 /female/day
- SSC Female ([2]; measured conc. 248 μg/L): 0 ± 0
- SSC Male ([2]; measured conc. 248 μg/L): 82 ± 15
- VTG (ng/mg of liver) Female ([2]; measured conc. 248 μg/L): 970 ± 200 ng/mg of liver
- VTG (ng/mg of liver) Male ([2]; measured conc. 248 μg/L): 35.8 ± 41.5 ng/mg of liver
- GSI Female ([2]; measured conc. 248 μg/L): 10.9%
- GSI Male ([2]; measured conc. 248 μg/L): 1.10%
- HSI Female ([2]; measured conc. 248 μg/L): 4.6%
- HSI Male ([2]; measured conc. 248 μg/L): 2.1%
- Length Female ([2]; measured conc. 248 μg/L): 33.7 mm
- Length Male ([2]; measured conc. 248 μg/L): 35.0 mm
- Weight Female ([2]; measured conc. 248 μg/L): 428 mg
- Weight Male ([2]; measured conc. 248 μg/L): 394 mg
- Fertility rate (%) ([2]; measured conc. 497 μg/L): 96%
- Mortality (%) Female ([2]; measured conc. 497 μg/L): 0%
- Mortality (%) Male ([2]; measured conc. 497 μg/L): 0%
- Number of fertilized eggs ([2]; measured conc. 497 μg/L): 27
- Number of total eggs ([2]; measured conc. 497 μg/L): 28 ± 3.0 /female/day
- SSC Female ([2]; measured conc. 497 μg/L): 0 ± 0
- SSC Male ([2]; measured conc. 497 μg/L): 82 ± 16
- VTG (ng/mg of liver) Female ([2]; measured conc. 497 μg/L): 812 ± 159 ng/mg of liver
- VTG (ng/mg of liver) Male ([2]; measured conc. 497 μg/L): 38.7 ± 44.8 ng/mg of liver
- GSI Female ([2]; measured conc. 497 μg/L): 10.3%
- GSI Male ([2]; measured conc. 497 μg/L): 1.20%
- HSI Female ([2]; measured conc. 497 μg/L): 4.8%
- HSI Male ([2]; measured conc. 497 μg/L): 1.9%
- Length Female ([2]; measured conc. 497 μg/L): 34.3 mm
- Length Male ([2]; measured conc. 497 μg/L): 35.9 mm
- Weight Female ([2]; measured conc. 497 μg/L): 470 mg
- Weight Male ([2]; measured conc. 497 μg/L): 429 mg
- Fertility rate (%) ([2]; measured conc. 925 μg/L): 93%
- Mortality (%) Female ([2]; measured conc. 925 μg/L): 0%
- Mortality (%) Male ([2]; measured conc. 925 μg/L): 0%
- Number of fertilized eggs ([2]; measured conc. 925 μg/L): 27
- Number of total eggs ([2]; measured conc. 925 μg/L): 29 ± 3.1 /female/day
- SSC Female ([2]; measured conc. 925 μg/L): 0 ± 0
- SSC Male ([2]; measured conc. 925 μg/L): 93 ± 16
- VTG (ng/mg of liver) Female ([2]; measured conc. 925 μg/L): 830 ± 131 ng/mg of liver
- VTG (ng/mg of liver) Male ([2]; measured conc. 925 μg/L): 50.8 ± 53.8 ng/mg of liver
- GSI Female ([2]; measured conc. 925 μg/L): 11.5%
- GSI Male ([2]; measured conc. 925 μg/L): 1.10%
- HSI Female ([2]; measured conc. 925 μg/L): 4.5%
- HSI Male ([2]; measured conc. 925 μg/L): 2.0%
- Length Female ([2]; measured conc. 925 μg/L): 34.2 mm
- Length Male ([2]; measured conc. 925 μg/L): 35.8 mm
- Weight Female ([2]; measured conc. 925 μg/L): 453 mg
- Weight Male ([2]; measured conc. 925 μg/L): 416 mg
- effect on fecundity (number of total eggs), in words ([2]; within the test concentrations, 21-day exposure): No effect
- concentration that significantly reduced the number of nuptial tubercles in males [3]: 938.6 µg/L
